The nature of data set [1]: relative permittivity at various frequencies (dimensionless). Particulars: 100 kPa, Liquid, Frequency=2 MHz, Parallel plate capacitor.
The nature of data set [2]: refractive index (Na D-line) (dimensionless). The note with it: 100 kPa, Liquid, Standard Abbe refractometry.
For data set [3] the following is noted: 101.33 kPa, Liquid, Pycnometric method.
Data set [4] can be described thus: refractive index (Na D-line) (dimensionless); xn = mol fraction of the nth substance listed. The note with it: 100 kPa, Liquid, Standard Abbe refractometry, x1 = 1.
A short description of data set [5]: relative permittivity at various frequencies (dimensionless); xn = mol fraction of the nth substance listed. The note with it: 100 kPa, Liquid, Frequency=2 MHz, Parallel plate capacitor, x1 = 1.

Numbers after ± are expanded uncertainties.

As to `COc1cccc(Br)c1` [1-bromo-3-methoxybenzene], the relative permittivity in data set [1] (303.15 K) stood at 7.01 ± 0.6; in data set [1] (313.15 K), 6.85 ± 0.6; in data set [1] (323.15 K), 6.74 ± 0.6; in data set [1] (333.15 K) it was 6.6 ± 0.6. In addition, the refractive index in data set [2] (303.15 K) was determined as 1.56 ± 0.002; in data set [2] (313.15 K), 1.558 ± 0.002; in data set [2] (323.15 K) it was 1.553 ± 0.002; in data set [2] (333.15 K), 1.55 ± 0.002. Moreover, the mass density in data set [3] (303.15 K) was found to be 1467.6 ± 6.1 kg/m3.
As to `CCCO` [propan-1-ol], the relative permittivity is on record as 19.49 ± 0.6 in data set [1] (303.15 K), 18.53 ± 0.6 in data set [1] (313.15 K), 17.59 ± 0.6 in data set [1] (323.15 K) and 16.03 ± 0.6 in data set [1] (333.15 K). For the same compound, the refractive index is reported as 1.383 ± 0.002 in data set [2] (303.15 K), 1.38 ± 0.002 in data set [2] (313.15 K), 1.376 ± 0.002 in data set [2] (323.15 K) and 1.371 ± 0.002 in data set [2] (333.15 K). Further, the mass density stood at 793.9 ± 6 kg/m3 in data set [3] (303.15 K), 791.7 ± 6 kg/m3 in data set [3] (313.15 K), 784.4 ± 6 kg/m3 in data set [3] (323.15 K) and 775.6 ± 6 kg/m3 in data set [3] (333.15 K).
As to `CCCO` [propan-1-ol] + COc1cccc(Br)c1, the refractive index was 1.383 ± 0.002 in data set [4] (303.15 K), 1.38 ± 0.002 in data set [4] (313.15 K), 1.376 ± 0.002 in data set [4] (323.15 K) and 1.371 ± 0.002 in data set [4] (333.15 K). In addition, the relative permittivity in data set [5] (303.15 K) was 19.49 ± 0.6; in data set [5] (313.15 K), 18.53 ± 0.6; in data set [5] (323.15 K), 17.59 ± 0.6; in data set [5] (333.15 K), 16.03 ± 0.6.
